Reference: ChEMBL document CHEMBL2034898, “Inhibition of homologous recombination in human cells by targeting RAD51 recombinase” (J Med Chem, 2012)
Substitutions are numbered along the chain they refer to. The source made the active and inactive calls.

Key:
[1] = target: T1, DNA repair protein RAD51 homolog 1 (Homo sapiens) (UniProt Q06609); conditions: HEK293, 5 uM
T1 sequence (whole entry): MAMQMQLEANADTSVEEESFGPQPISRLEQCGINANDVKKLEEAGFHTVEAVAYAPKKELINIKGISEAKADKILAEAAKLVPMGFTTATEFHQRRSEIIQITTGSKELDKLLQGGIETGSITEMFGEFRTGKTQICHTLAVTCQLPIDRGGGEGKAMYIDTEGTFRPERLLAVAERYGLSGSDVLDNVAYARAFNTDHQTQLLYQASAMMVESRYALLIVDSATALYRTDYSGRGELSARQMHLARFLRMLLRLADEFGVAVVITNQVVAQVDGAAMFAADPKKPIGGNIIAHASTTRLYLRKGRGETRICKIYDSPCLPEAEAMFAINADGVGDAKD
Description: Inhibition of RAD51 in HEK cells assessed as potentiation of cisplatin-induced cytotoxicity at 5 uM in presence of RAD51 siRNA transfected 40 hrs before compound and cisplatin exposure for 10 to 12 hrs by clonogenic survival assay relative to untreated control

MEF [2] = experiment: Toxicity in MEF cells assessed as cell viability at 5 uM by incubated for 1 hr by clonogenic survival assay; type: cell-based; conditions: mouse
[3] = target: T2, Protein RecA (Escherichia coli K-12) (UniProt P0A7G6); experiment: Inhibition of Escherichia coli RecA-mediated DNA strand exchange at 10 to 100 microM using pBSK (+) gapped and linear dsDNA substrates by joint molecule formation assay
T2 sequence (whole entry): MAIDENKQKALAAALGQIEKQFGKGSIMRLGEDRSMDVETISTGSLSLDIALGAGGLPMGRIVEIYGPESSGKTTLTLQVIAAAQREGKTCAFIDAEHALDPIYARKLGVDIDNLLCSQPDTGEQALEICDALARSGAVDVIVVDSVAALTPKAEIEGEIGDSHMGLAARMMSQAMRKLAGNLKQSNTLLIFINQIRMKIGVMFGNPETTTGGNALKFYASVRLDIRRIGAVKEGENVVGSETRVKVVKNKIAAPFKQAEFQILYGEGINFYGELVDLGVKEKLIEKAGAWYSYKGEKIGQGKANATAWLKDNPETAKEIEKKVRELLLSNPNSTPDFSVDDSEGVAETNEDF

[4] = target: T2, Protein RecA (Escherichia coli K-12); experiment: Binding affinity to Escherichia coli RecA at 50 microM by SPR method
HEK-GFP [5] = experiment: Effect on RAD51 expression in HEK-GFP cells by Western blotting; type: functional, cell-based; conditions: Homo sapiens
[6] = target: T1, DNA repair protein RAD51 homolog 1 (Homo sapiens); conditions: 20 uM
Description: Inhibition of dsDNA binding to human RAD51-ssDNA filament assessed as reduction in coaggregation formation at 20 uM in presence of 50 mM NaCl by dsDNA coaggregation assay

[7] = target: T1, DNA repair protein RAD51 homolog 1 (Homo sapiens); conditions: 25 uM
Description: Inhibition of ssDNA binding to human RAD51 assessed as reduction in RAD51-90-mer ssDNA complex formation at 25 uM by EMSA method

[8] = target: T1, DNA repair protein RAD51 homolog 1 (Homo sapiens); conditions: 20 uM; remark: listed apart in the source
Description: Inhibition of human RAD51-ssDNA filament formation at 20 uM added to free RAD51 prior to filament formation by D-loop formation assay

[9] = target: T1, DNA repair protein RAD51 homolog 1 (Homo sapiens); conditions: HEK293, 25 uM
Description: Inhibition of DNA binding to human RAD51 in irradiated HEK cells assessed as reduction in RAD51 foci formation at 25 uM by fluorescence microscopy relative to untreated control

HEK-GFP [10] = experiment: Effect on GFP expression in HEK-GFP cells transfected with pMX-GFP plasmid by Western blotting; type: functional, cell-based; conditions: Homo sapiens
[11] = target: T1, DNA repair protein RAD51 homolog 1 (Homo sapiens); conditions: 25 uM; remark: listed apart in the source
Description: Inhibition of human RAD51 ATPase activity at 25 uM by ATP hydrolysis assay

[12] = target: T3, DNA repair protein RAD51 homolog 1 (Mus musculus) (UniProt Q08297); conditions: MEF, 5 uM
T3 sequence (whole entry): T1 sequence (whole entry) with N10S, F46Y, A76T, A194G
Description: Inhibition of RAD51 in MEF cells assessed as potentiation of MMC-induced cytotoxicity at 5 uM incubated for 1 hr in presence of 0.01 uM PARP1 inhibitor AZD2281 by clonogenic survival assay relative to untreated control

HEK-GFP [13] = experiment: Effect on I-SceI expression in HEK-GFP cells by Western blotting; type: functional, cell-based; conditions: Homo sapiens
[14] = target: T1, DNA repair protein RAD51 homolog 1 (Homo sapiens); conditions: HEK293, 5 uM; remark: listed apart in the source
Description: Inhibition of RAD51 in HEK cells assessed as potentiation of cisplatin-induced cytotoxicity at 5 uM in presence of RAD51 siRNA transfected 40 hrs before compound and cisplatin addition by clonogenic survival assay relative to untreated control

[15] = Lipophilicity, log P of the compound; type: physicochemical; conditions: octanol/water
[16] = target: T1, DNA repair protein RAD51 homolog 1 (Homo sapiens); conditions: 200 uM
Description: Inhibition of human RAD51 oligomerization at 200 uM by gel filtration method

[17] = target: T3, DNA repair protein RAD51 homolog 1 (Mus musculus); conditions: MEF, 5 uM; remark: listed apart in the source
Description: Inhibition of RAD51 in MEF cells assessed as potentiation of MMC-induced cytotoxicity at 5 uM incubated for 1 hr by clonogenic survival assay relative to untreated control

[18] = target: T3, DNA repair protein RAD51 homolog 1 (Mus musculus); conditions: MEF, 5 uM; remark: listed apart in the source
Description: Inhibition of RAD51 in Tp53-/- MEF cells assessed as potentiation of 1 uM MMC-induced cytotoxicity at 5 uM incubated for 1 hr by clonogenic survival assay relative to untreated control

[19] = target: T3, DNA repair protein RAD51 homolog 1 (Mus musculus); conditions: MEF, 5 uM; remark: listed apart in the source
Description: Inhibition of RAD51 in Tp53-/- MEF cells assessed as potentiation of 32 uM cisplatin-induced cytotoxicity at 5 uM incubated for 1 hr by clonogenic survival assay relative to untreated control

[20] = target: T2, Protein RecA (Escherichia coli K-12); experiment: Inhibition of Escherichia coli RecA-mediated DNA branch migration at 10 to 100 microM using [32P]-labeled 5'-joint molecules after 8 hrs by branch migration assay
MEF [21] = experiment: Toxicity in Tp53-/- MEF cells assessed as cell viability at 5 uM by incubated for 1 hr by clonogenic survival assay; type: cell-based; conditions: mouse
[22] = target: T1, DNA repair protein RAD51 homolog 1 (Homo sapiens); conditions: HEK293, 5 uM; remark: listed apart in the source
Description: Inhibition of RAD51 in HEK cells assessed as potentiation of cisplatin-induced cytotoxicity at 5 uM in presence of RAD51 siRNA transfected 40 hrs before compound and cisplatin exposure for 16 hrs by clonogenic survival assay relative to untreated control

[23] = target: T1, DNA repair protein RAD51 homolog 1 (Homo sapiens); experiment: Inhibition of human RAD51-mediated DNA strand exchange at 5 to 20 uM using pBSK (+) gapped and linear dsDNA substrates by joint molecule formation assay
[24] = target: T1, DNA repair protein RAD51 homolog 1 (Homo sapiens); experiment: Inhibition of human RAD51 in HEK-GFP cells assessed as reduction in double-strand breaks-induced homologous recombination at 5 to 20 uM by chromosomally integrated DR-GFP reporter gene assay; type: cell-based

O=c1c2ccccc2nc(/C=C/c2cccnc2)n1Cc1ccccc1
3.7: logP [15]
Non-toxic: Activity (MEF [2]) | Activity (MEF [21])
inactive: inhibition [3] | Activity [4] | Activity (HEK-GFP [5]) | Activity (HEK-GFP [10]) | Activity (HEK-GFP [13]) | inhibition [16] | inhibition [17] | inhibition [20]
active: inhibition [1] | inhibition [6] | inhibition [7] | inhibition [8] | inhibition [9] | inhibition [11] | inhibition [12] | inhibition [14] | inhibition [18] | inhibition [19] | inhibition [22]

Cc1cc2nc3c(nc2cc1C)[C@@]1(C(=O)O)CCC3(C)C1(C)C
3.7: logP [15]
inactive: inhibition [23] | inhibition [24]
